The test system of test [1] is Cutibacterium acnes ATCC 11827. As to the kind of experiment: In vitro UV model, survival of C. acnes after UV irradiation (96-well liquid model, plate counting). The note with it: for C. acnes relative protection by the UV filter(s) vs. vehicle control / C. acnes survival: UV 3 SED (UVA+UVB 30 mJ/cm^2), after 4 h, sample at 20% v/v; for C. acnes relative protection by the UV filter(s) vs. vehicle control: (sample survival - vehicle survival)/vehicle survival; for C. acnes survival: compared to untreated and non-irradiated control. It counts as cell-based. As for the experimental part: Accordingly, the inventors developed a targeted in vitro liquid model in 96-well microplate format to screen for UV protective actives (“UV filters”) on bacterial survival. The effects of selected UV irradiation conditions tested on microbial population of C. acnes and the commensal reference strain of Staphylococcus epidermidis in the presence of various UV filters and combinations thereof were evaluated with the evolution of the residual microbial population after 4 h. The inhibition of bacterial growth, as consequence of UV irradiation, was compared to that of the same strain without UV irradiation and was expressed in percentage of survival (%). The microbial strains used in this study are listed below and their cultures are reconstituted according to the direction of the supplier collection center of the reference strain, (ATCC American Type Culture Collection, USA): • Cutibacterium acnes ATCC 11827 • Staphylococcus epidermidis ATCC 12228 The 96-well plate was filled with the recommended culture media (140 μL) and a calibrated inoculum (20 μL) of each bacterial strain was added to reach […] colony forming units per milliliter (cfu/mL) final concentration. After contamination, the sample was added (40 μL; 20% v/v) in triplicate and was thoroughly mixed to ensure a homogeneous distribution. Then, the plate was submitted to UV stress through an UV irradiator system (BioSun, Vilber Lourmat, France) according to the UV doses presented Table 1 below. The specific UV dose selected was between 10 and 49% survival of the microbial population. The counting of C. acnes microbial population was performed by plating aliquots on the agar plates and was done in triplicate. The enumeration of grown C. acnes colonies was used to determine the decrease rate of microbial population. Controls performed during this experiment were the culture medium with bacteria incubated without UV stress. The microbial population counts were expressed in cfu/mL and were the average of experiment done in triplicate. The use level of the single UV filter and combinations in the test formulations was calculated to obtain a predicted in vitro SPF value of 5.75+/−0.15 and 23.45+/−0.65, respectively (Table 2). The UV filters were mixed in the two oils, Tegosoft XC (55%) and Miglyol 829 Eco (ad100%) and the emulsifier Tween 80 (5%). The effect of selected UV irradiation conditions on the survival of microbial population of C. acnes and S. epidermidis in the presence of the tested samples 1-10 at 20% v/v, was compared with the corresponding strain in the absence of samples 1-10 and without exposure to UV irradiation (control). The results after the 4-hour incubation were compared to the population of bacteria incubated without UV stress (determination of bacterial population survival) and were expressed in percentage of survival (%). The relative percentage of protection (%) was calculated from the difference between the survival percentages of samples and vehicle control (with UV irradiation) and divided to the survival percentage of the vehicle control. Consequently, the survival of each microbial population and the relative protection by the UV filter(s) were calculated and are summarized in the Table 2.

The test system of test [2] is Staphylococcus epidermidis ATCC 12228. Briefly: In vitro UV model, survival of S. epidermidis after UV irradiation (96-well liquid model, MPN method). It is filed as cell-based. Here is the method: Accordingly, the inventors developed a targeted in vitro liquid model in 96-well microplate format to screen for UV protective actives (“UV filters”) on bacterial survival. The effects of selected UV irradiation conditions tested on microbial population of C. acnes and the commensal reference strain of Staphylococcus epidermidis in the presence of various UV filters and combinations thereof were evaluated with the evolution of the residual microbial population after 4 h. The inhibition of bacterial growth, as consequence of UV irradiation, was compared to that of the same strain without UV irradiation and was expressed in percentage of survival (%). […] The use level of the single UV filter and combinations in the test formulations was calculated to obtain a predicted in vitro SPF value of 5.75+/−0.15 and 23.45+/−0.65, respectively (Table 2). […] The relative percentage of protection (%) was calculated from the difference between the survival percentages of samples and vehicle control (with UV irradiation) and divided to the survival percentage of the vehicle control. Consequently, the survival of each microbial population and the relative protection by the UV filter(s) were calculated and are summarized in the Table 2.

`CCCCC(CC)COC(=O)C(C#N)=C(c1ccccc1)c1ccccc1` (stereo not shown) [Inv. 1, Octocrylene]: in test [1] (C. acnes ATCC 11827, phylotype IA, upon UV irradiation), the “effect on the population of C. acnes upon UV irradiation (in words)” value was “reduced the population of C. acnes”. Besides, in test [1], the “C. acnes relative protection by the UV filter(s) vs. vehicle control” value is on record as “(−15) %” and the C. acnes survival was found to be 56%. For the same molecule, the “effect on the commensal bacterium S. epidermidis upon UV irradiation (in words)” value in test [2] is reported as “maintain or even propagating the commensal bacterium S. epidermidis”.
In the case of `CCCCC(CC)COC(=O)c1ccccc1O` (stereo not shown) [Inv. 2, Ethylhexyl Salicylate], in test [1], the “C. acnes relative protection by the UV filter(s) vs. vehicle control” value was “(−30) %” and the C. acnes survival stood at 46%.
The like results for `CCCCC(CC)COC(=O)c1ccc(Nc2nc(Nc3ccc(C(=O)OCC(CC)CCCC)cc3)nc(Nc3ccc(C(=O)OCC(CC)CCCC)cc3)n2)cc1` (stereo not shown) [Ref. 1, Ethylhexyl Triazone, reference compound] were, in that order, “(+40) %” and 92%.
In the same order, the values of `CCCCC(CC)COc1ccc(-c2nc(-c3ccc(OC)cc3)nc(-c3ccc(OCC(CC)CCCC)cc3O)n2)c(O)c1` (stereo not shown) [Ref. 2, Bis-Ethylhexyloxyphenol Methoxyphenyl Triazine, reference compound] are “(+13) %” and 74%.

These data come from US20250161329A1, “USE OF UV FILTERS FOR THE TREATMENT OF ACNE” (DSM IP ASSETS B.V., priority 2022, published 2025).
